For this experiment, the target named is Neuropilin-1 (Homo sapiens) (UniProt O14786). Kind of experiment: blockers of CendR peptide binding to NRP-1 – biochemical, FP and AlphaScreen panel, dose response (AID 651650). The following applies: NRP-1 b1b2 / RPARPAR peptide binding, FP or AlphaScreen.
[1] abbreviates: AlphaScreen, run 1, individual panel run IC50.
Setting [2] is: FP, run 1, individual panel run IC50.
The mark [3] stands for this setting: FP, run 2, individual panel run IC50.

These results are taken from PubChem BioAssay AID651650 (Sanford-Burnham Center for Chemical Genomics, 2012).

Molecules are shown by their SMILES. The source made the active and inactive calls.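 Rule for the calls: active = mean IC50 below 20 µM in each of the two panels, so potent in both; inactive = the rest.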 Bounds are passed on as bounds.

Neuropilin-1 (Homo sapiens), sequence (O14786 whole entry, looked up): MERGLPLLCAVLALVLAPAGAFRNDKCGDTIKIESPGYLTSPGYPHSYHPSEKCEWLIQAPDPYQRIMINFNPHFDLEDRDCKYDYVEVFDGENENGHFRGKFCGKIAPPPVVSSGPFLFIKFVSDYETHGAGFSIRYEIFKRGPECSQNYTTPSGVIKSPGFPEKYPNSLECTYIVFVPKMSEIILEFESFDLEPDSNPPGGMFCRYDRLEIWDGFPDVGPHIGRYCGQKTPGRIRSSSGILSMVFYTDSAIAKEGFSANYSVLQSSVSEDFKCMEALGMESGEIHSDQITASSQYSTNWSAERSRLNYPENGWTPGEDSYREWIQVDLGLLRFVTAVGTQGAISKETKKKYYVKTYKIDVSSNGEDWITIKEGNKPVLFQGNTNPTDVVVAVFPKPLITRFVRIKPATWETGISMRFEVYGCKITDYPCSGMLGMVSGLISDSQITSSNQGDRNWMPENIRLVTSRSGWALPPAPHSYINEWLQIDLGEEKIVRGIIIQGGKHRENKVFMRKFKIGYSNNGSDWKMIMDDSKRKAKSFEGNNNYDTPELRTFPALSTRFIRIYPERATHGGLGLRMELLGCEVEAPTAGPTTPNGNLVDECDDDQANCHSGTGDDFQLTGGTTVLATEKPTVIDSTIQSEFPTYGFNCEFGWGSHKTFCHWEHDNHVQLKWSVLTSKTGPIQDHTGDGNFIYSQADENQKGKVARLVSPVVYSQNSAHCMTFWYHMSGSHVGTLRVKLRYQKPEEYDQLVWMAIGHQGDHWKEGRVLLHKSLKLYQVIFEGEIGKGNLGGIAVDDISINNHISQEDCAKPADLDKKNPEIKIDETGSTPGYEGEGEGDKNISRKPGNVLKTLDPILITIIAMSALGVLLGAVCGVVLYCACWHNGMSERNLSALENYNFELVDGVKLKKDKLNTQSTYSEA

Turning to `CC(=O)NC(c1cccc(F)c1)c1nc(-c2cccc(C(F)(F)F)c2)cs1` (stereo not given), the IC50 (usually the concentration needed to halve the response being measured) by setting is: (AlphaScreen, mean of runs) > 100 µM (inactive); under setting [1], over 100 µM; (FP, mean of runs) > 95 µM (inactive); under setting [2], over 95 µM; under setting [3], over 95 µM.

Consider `COc1ccc(N(CC(=O)NCc2ccco2)C(=O)CCC(=O)Nc2ccccn2)cc1`, for which the IC50 reads like this: (AlphaScreen, mean of runs) > 100 µM (inactive); under setting [1], over 100 µM; (FP, mean of runs) > 95 µM (inactive); under setting [2], over 95 µM; under setting [3], over 95 µM.

For the molecule `Cc1ccsc1C(=O)N1CCCC(CO)(Cc2ccccc2F)C1` (stereo not given), the IC50 reads like this: (AlphaScreen, mean of runs) > 100 µM (inactive); under setting [1], over 100 µM; (FP, mean of runs) > 95 µM (inactive); under setting [2], over 95 µM; under setting [3], over 95 µM.

As to `CCOc1cc(C(=O)NCCN2CCOCC2)cc(OCC)c1OCC`, the IC50 (AlphaScreen, mean of runs) was > 100 µM (inactive); the IC50 under setting [1] is over 100 µM; the IC50 (FP, mean of runs) is > 95 µM (inactive); the IC50 under setting [2] was over 95 µM; the IC50 under setting [3] is over 95 µM.

With `COc1cc2c(cc1OC)C(Nc1ccc(S(N)(=O)=O)cc1)=NC(C)(C)C2`, the IC50 result (AlphaScreen, mean of runs) is “inactive”. Further, the IC50 was 51.8 µM under setting [1]; > 95 µM (inactive) (FP, mean of runs); over 95 µM under setting [2]; over 95 µM under setting [3].

`COc1ccccc1N1CCN(C2CCCN(C(=O)Cn3cccn3)C2)CC1` (stereo not given): the IC50 (AlphaScreen, mean of runs) is > 100 µM (inactive); the IC50 under setting [1] was over 100 µM; the IC50 (FP, mean of runs) is > 95 µM (inactive); the IC50 under setting [2] is over 95 µM; the IC50 under setting [3] was over 95 µM.

Turning to `O=c1[nH]c(Nc2ccccn2)cc2ccccc12`, the IC50 is, setting by setting: (AlphaScreen, mean of runs) 19.5 µM; under setting [1], 19.6 µM; (FP, mean of runs) > 95 µM (inactive); under setting [2], over 95 µM; under setting [3], over 95 µM.

Turning to `Cc1cccc(C)c1Nc1nnc(SCC(=O)Nc2cc(S(=O)(=O)N3CCCCC3)ccc2Cl)s1`, the IC50 was > 100 µM (inactive) (AlphaScreen, mean of runs); over 100 µM under setting [1]; > 95 µM (inactive) (FP, mean of runs); over 95 µM under setting [2]; over 95 µM under setting [3].

For the molecule `C=CCNC(=O)c1onc(CSc2ccc(F)c(F)c2)c1C(=O)NCC=C`, the IC50 is > 100 µM (inactive) (AlphaScreen, mean of runs); over 100 µM under setting [1]; > 95 µM (inactive) (FP, mean of runs); over 95 µM under setting [2]; over 95 µM under setting [3].

Consider `Cc1ccccc1/C=C/c1nc2ccccc2c(=O)n1CCc1ccccc1`, for which the IC50 was > 100 µM (inactive) (AlphaScreen, mean of runs); over 100 µM under setting [1]; > 95 µM (inactive) (FP, mean of runs); over 95 µM under setting [2]; over 95 µM under setting [3].

As to `CCOC(=O)Cn1c(=O)n(Cc2ccco2)c(=O)c2ccc(C(=O)NC3CCCC3)cc21`, the IC50 result (AlphaScreen, mean of runs) is “inactive”. Besides, the concentration for half-maximal inhibition (IC50) runs as follows: under setting [1], 63.7 µM; (FP, mean of runs) > 95 µM (inactive); under setting [2], over 95 µM; under setting [3], over 95 µM.

As to `CCc1ccc(C2CC(=O)N(c3cccc(F)c3)C3=C2C(=O)OC3)cc1` (stereo not given), the IC50 is, setting by setting: (AlphaScreen, mean of runs) > 100 µM (inactive); under setting [1], over 100 µM; (FP, mean of runs) > 95 µM (inactive); under setting [2], over 95 µM; under setting [3], over 95 µM.

`Cc1cccc(NC(=O)c2ccc(OCc3c(C)noc3C)cc2)c1`: the IC50 reads like this: (AlphaScreen, mean of runs) 17.8 µM; under setting [1], 17.8 µM; (FP, mean of runs) > 95 µM (inactive); under setting [2], over 95 µM; under setting [3], over 95 µM.

Turning to `COc1ccc(NC(=O)CN(C)CC(=O)Nc2cccc(F)c2)cc1Cl`, the IC50 result (AlphaScreen, mean of runs) is “inactive”. In addition, the half-maximal inhibitory concentration (IC50) runs as follows: under setting [1], 35.5 µM; (FP, mean of runs) > 95 µM (inactive); under setting [2], over 95 µM; under setting [3], over 95 µM.

Turning to `O=Cc1ccc(-c2ccccc2C(=O)O)o1`, the IC50 is, setting by setting: (AlphaScreen, mean of runs) > 100 µM (inactive); under setting [1], over 100 µM; (FP, mean of runs) > 95 µM (inactive); under setting [2], over 95 µM; under setting [3], over 95 µM.

On to `COC(=O)C1N[C@@H]([C@@H](NC(=O)COc2ccccc2)C(=O)NCc2ccccc2)SC1(C)C` (stereo not given in full), for which the IC50 by setting is: (AlphaScreen, mean of runs) > 100 µM (inactive); under setting [1], over 100 µM; (FP, mean of runs) > 95 µM (inactive); under setting [2], over 95 µM; under setting [3], over 95 µM.

Consider `Cn1c(SCc2nc3ccccc3s2)nnc1-c1cccs1`, for which the IC50 result (AlphaScreen, mean of runs) is “inactive”. The IC50 was 46.6 µM under setting [1]; > 95 µM (inactive) (FP, mean of runs); over 95 µM under setting [2]; over 95 µM under setting [3].

On to `NCCCC[C@H]1CN=C(N)N1CCC12CC3CC(CC(C3)C1)C2`, for which the IC50 result (AlphaScreen, mean of runs) was “inactive”. The concentration for half-maximal inhibition (IC50) under setting [1] was determined as 50.2 µM; the IC50 (FP, mean of runs) is > 95 µM (inactive); the IC50 under setting [2] was over 95 µM; the IC50 under setting [3] was over 95 µM.

Consider `CC(C)(C)c1nc(SCC(=O)NCc2ccco2)c2ccccc2n1`, for which the IC50 entry (AlphaScreen, mean of runs) was “inactive”. Besides, the IC50 under setting [1] turned out to be 28 µM; the IC50 (FP, mean of runs) was > 95 µM (inactive); the IC50 under setting [2] is over 95 µM; the IC50 under setting [3] is over 95 µM.

With `CCc1ccc(OC(=O)CN2C(=O)c3ccccc3C2=O)cc1`, the IC50 entry (AlphaScreen, mean of runs) was “inactive”. In addition, the IC50 runs as follows: under setting [1], 32 µM; (FP, mean of runs) > 95 µM (inactive); under setting [2], over 95 µM; under setting [3], over 95 µM.

As for `O=C1CCN(Cc2ccccc2)S(=O)(=O)c2ccccc21`, the IC50 is, setting by setting: (AlphaScreen, mean of runs) > 100 µM (inactive); under setting [1], over 100 µM; (FP, mean of runs) > 95 µM (inactive); under setting [2], over 95 µM; under setting [3], over 95 µM.

Take `CCOC(=O)/C=C/COc1ccccc1[N+](=O)[O-]`: the IC50 was > 100 µM (inactive) (AlphaScreen, mean of runs); over 100 µM under setting [1]; > 95 µM (inactive) (FP, mean of runs); over 95 µM under setting [2]; over 95 µM under setting [3].

For the molecule `Cc1occc1C(=O)N1N=C(C2CC2)CC1(O)C(F)(F)F` (stereo not given), the IC50 was > 100 µM (inactive) (AlphaScreen, mean of runs); over 100 µM under setting [1]; > 95 µM (inactive) (FP, mean of runs); over 95 µM under setting [2]; over 95 µM under setting [3].

Regarding `CCc1cccc(NC(=O)CCc2c(C)nn(-c3ccc(N4CCOCC4)nn3)c2C)c1`, the IC50 result (AlphaScreen, mean of runs) was “inactive”. Further, the concentration for half-maximal inhibition (IC50) is, setting by setting: under setting [1], 40.2 µM; (FP, mean of runs) > 95 µM (inactive); under setting [2], over 95 µM; under setting [3], over 95 µM.

For the molecule `CCn1cc(C(=O)N2CCN(C(=O)c3ccco3)CC2)c2cc(OC)c(OC)cc2c1=O`, for the setting “AlphaScreen, mean of runs”, the IC50 result is “inactive”. Moreover, the half-inhibitory concentration (IC50) under setting [1] was 25.4 µM; the IC50 (FP, mean of runs) is > 95 µM (inactive); the concentration for half-maximal inhibition (IC50) under setting [2] was over 95 µM; the IC50 under setting [3] was over 95 µM.

Turning to `COc1cc2oc(=O)ccc2cc1[C@@H](O)[C@@H]1OC(C)(C)OC1(C)C`, the IC50 by setting is: (AlphaScreen, mean of runs) > 100 µM (inactive); under setting [1], over 100 µM; (FP, mean of runs) > 95 µM (inactive); under setting [2], over 95 µM; under setting [3], over 95 µM.

Turning to `CC(C(=O)N1CCN(c2ccc(Cl)cc2)CC1)c1ncc(C(F)(F)F)cc1Cl` (stereo not given), the IC50 by setting is: (AlphaScreen, mean of runs) > 100 µM (inactive); under setting [1], over 100 µM; (FP, mean of runs) > 95 µM (inactive); under setting [2], over 95 µM; under setting [3], over 95 µM.

Turning to `O=c1oc(Nc2ccccc2F)nc2ccccc12`, the IC50 is > 100 µM (inactive) (AlphaScreen, mean of runs); over 100 µM under setting [1]; > 95 µM (inactive) (FP, mean of runs); over 95 µM under setting [2]; over 95 µM under setting [3].

`O=C(CSc1nnc(Cc2ccccc2)n1Cc1ccccc1)NCc1ccco1`: the IC50 was > 100 µM (inactive) (AlphaScreen, mean of runs); over 100 µM under setting [1]; > 95 µM (inactive) (FP, mean of runs); over 95 µM under setting [2]; over 95 µM under setting [3].

With `C=CCC1(CC=C)CCCN1C(=O)c1cc(COc2cccc(OC)c2)on1`, the IC50 (AlphaScreen, mean of runs) was > 100 µM (inactive); the IC50 under setting [1] is over 100 µM; the IC50 (FP, mean of runs) is > 95 µM (inactive); the 50% inhibitory concentration (IC50) under setting [2] is over 95 µM; the 50% inhibitory concentration (IC50) under setting [3] was over 95 µM.

For `C=CCOc1c(CNc2ncn[nH]2)cccc1OCC`, the IC50 is, setting by setting: (AlphaScreen, mean of runs) > 100 µM (inactive); under setting [1], over 100 µM; (FP, mean of runs) 9.9 µM; under setting [2], 9.93 µM; under setting [3], over 95 µM.

As for `O=C(O)c1cccc(N2C(=O)c3cc([N+](=O)[O-])cc4cc([N+](=O)[O-])cc(c34)C2=O)c1`, the IC50 is, setting by setting: (AlphaScreen, mean of runs) > 100 µM (inactive); under setting [1], over 100 µM; (FP, mean of runs) > 95 µM (inactive); under setting [2], over 95 µM; under setting [3], over 95 µM.

Regarding `CN(C(=O)COC(=O)c1cnc(Cl)c(Cl)c1)C1CCCCC1`, the IC50 runs as follows: (AlphaScreen, mean of runs) > 100 µM (inactive); under setting [1], over 100 µM; (FP, mean of runs) > 95 µM (inactive); under setting [2], over 95 µM; under setting [3], over 95 µM.

As for `CCc1ccccc1NC(=O)c1ccccc1N1C(=O)C2C3C=CC(C3)C2C1=O` (stereo not given), for the setting “AlphaScreen, mean of runs”, the IC50 entry is “inactive”. In addition, the IC50 by setting is: under setting [1], 96.8 µM; (FP, mean of runs) > 95 µM (inactive); under setting [2], over 95 µM; under setting [3], over 95 µM.

As to `Cc1cc(C)cc(N(CCC(=O)O)S(=O)(=O)c2ccc3ccccc3c2)c1`, the IC50 was > 100 µM (inactive) (AlphaScreen, mean of runs); over 100 µM under setting [1]; > 95 µM (inactive) (FP, mean of runs); over 95 µM under setting [2]; over 95 µM under setting [3].
